{
  "source": "patent US20240181121A1",
  "about": "“A WOUND CARE PRODUCT COMPRISING AN ANTIMICROBIAL COATING” (Mölnlycke Health Care AB, priority 2021, published 2024)",
  "key": {"[1]": {"assay": "Rate of dissolution of antimicrobial coating in water, LC-MS", "format": "physicochemical", "details": "2 ml water; sterilized coated wound contact layer", "experimental": "The comparison was made between prototypes spray coated with an antimicrobial solution of chlorhexidine phosphate (0.56% by weight) and prototypes spray coated with an antimicrobial solution of chlorhexidine acetate (0.68% by weight). The spray coating was performed with the same parameters and on the same equipment, as described with respect to Example 1 and 2 hereinbefore. After spraying, the samples were sent to sterilization on production site to undergo typical sterilization cycle required for antimicrobial products. […] Triplicates of silicone coated films (wound contact layers) and release liners were separated and placed in wells in contact with 2 ml solution of water during 3 hours, then removed and placed in a new well for 24 hours in order to evaluate instant (>3 h) and short (>24 h) term dissolution. After calibration of the equipment against the solutions of interest, the concentration of CHP and CHAc in the different wells was evaluated by Liquid chromatography-mass spectrometry in order to quantify the amount of antimicrobial coating that was able to dissolve instantly or shortly."}, "[2]": {"system": "Candida albicans ATCC 10231", "assay": "Minimum bactericidal concentration (MBC) in solution, simulated wound fluid", "format": "cell-based", "details": "for MBC: Candida albicans, simulated wound fluid, 48 h", "experimental": "(§1) Test organisms: P. aeruginosa ATCC 9027 (bacteria), S. aureus ATCC 6538 (bacteria), C. albicans ATCC 10231 (fungi), P. aeruginosa ATCC PAO1 (bacteria, example 1b).\n(§2) Test time: 24 h for bacteria and 48 h for fungi\n(§3) Start inoculum: 1×10^6 CFU/ml for bacteria, 4×10^6 CFU/ml for fungi.\n(§4) Tests were performed in solution to compare the potency of silver sulfate, chlorhexidine phosphate and chlorhexidine gluconate, using simulated wound fluid, SWF (fetal bovine serum (FBS) and Peptone Water (PW) mixed in equal proportions, which correspond to the protein and electrolyte concentration of wound exudates (Emiko Aiba-Kojima, M D et. al Wound Rep Reg (2007) 15 511-520; Trengove, N et al Wound Rep Reg (1996) 4 1067-1927)) as test medium. The aim was to define the lowest concentration of an antimicrobial agent required to kill the specific microorganism. The test microorganisms were suspended in SWF, in which antimicrobial substances were added at different concentration before subculture in well microtiter plates."}, "[3]": {"system": "P. aeruginosa (ATCC 9027)", "assay": "Minimum bactericidal concentration (MBC) in solution, simulated wound fluid", "format": "cell-based", "experimental": "as §1, §2, §3, §4"}, "S. aureus ATCC 6538": {"system": "S. aureus ATCC 6538", "assay": "Minimum bactericidal concentration (MBC) in solution, simulated wound fluid", "format": "cell-based", "experimental": "as §1, §2, §3, §4"}, "[4]": {"system": "Pseudomonas aeruginosa PAO1 biofilms", "assay": "Reduction of biofilm counts in contact with CHP solution (collagen matrix, SWF)", "format": "cell-based", "details": "for Log count / Log reduction: biofilm, 24 h", "experimental": "Tests were performed in solution to evaluate the potency of chlorhexidine phosphate (CHP) against biofilms cultured on a collagen matrix, using SWF as test medium. The aim was to define if concentrations of CHP that can be spray coated on the surface of the silicone contact layer would have an impact on the biofilms. The test microorganism was Pseudomonas aeruginosa PAO1, suspended in a SWF solution, and placed on a collagen matrix in wells of 24-well plates. The well plates were incubated at 37° C., 95% relative humidity for 24 h to induce formation of biofilms. After incubation and formation of biofilms, the antimicrobial substance CHP was added on top of biofilms at different concentrations in triplicates and were incubated for another 24 h at 37° C., 95% relative humidity. […] The number of viable counts were determined by plating on PetriFilms."}, "[5]": {"system": "all microorganism (same microorganisms as used in Example 1a)", "assay": "Antimicrobial effect of coating sprayed on silicone wound contact layer", "format": "cell-based, S. aureus, P. aeruginosa, C. albicans", "details": "sterilized, 2 ml SWF", "quoted_text": "The prototypes were punched into disks of 7 cm^2 and placed in a well in contact with 2 ml SWF containing a solution of microorganism in suspension (same microorganisms as used in Example 1a). The wound contact layer used in the tests comprised a polyurethane film coated with 200 gsm of a silicone adhesive.\nMicroorganism growth was evaluated on the silicone layer; i.e. the skin facing surface, and in suspension in the liquid."}, "Staphylococcus aureus": {"system": "Staphylococcus aureus", "details": "prototype coated with 75 μg/cm^2; sterilized; 2 ml SWF", "experimental": "as §1, §2, §3"}},
  "data": [
    {"smiles": "CC(=O)O.CC(=O)O.NC(=N\\CCCCCC/N=C(N)/N=C(\\N)Nc1ccc(Cl)cc1)/N=C(\\N)Nc1ccc(Cl)cc1", "note": "[CHAc, chlorhexidine acetate, reference compound]", "values": [
      {"measurement": "Instant dissolution % Released from silicone after 3 h", "setting": "[1]", "value": 28, "unit": "%"},
      {"measurement": "Short time dissolution Additional % released from silicone after additional 21 h", "setting": "[1]", "value": 11, "unit": "%"}
    ]},
    {"smiles": "N=C(NCCCCCCNC(=N)NC(=N)Nc1ccc(Cl)cc1)NC(=N)Nc1ccc(Cl)cc1.O=C(O)[C@H](O)[C@@H](O)[C@H](O)[C@H](O)CO.O=C(O)[C@H](O)[C@@H](O)[C@H](O)[C@H](O)CO", "note": "[CHG, chlorhexidine gluconate]", "values": [
      {"measurement": "MBC", "setting": "[2]", "value": 60, "unit": "µM"},
      {"measurement": "MBC", "setting": "[3]; 24 h", "value": 520, "unit": "µM"},
      {"measurement": "MBC", "setting": "S. aureus ATCC 6538; 24 h", "value": 30, "unit": "µM"}
    ]},
    {"smiles": "N=C(NCCCCCCNC(=N)NC(=N)Nc1ccc(Cl)cc1)NC(=N)Nc1ccc(Cl)cc1", "note": "[CHP, chlorhexidine phosphate]", "values": [
      {"measurement": "MBC", "setting": "[2]; ATCC10231", "value": 26, "unit": "µM"},
      {"measurement": "times more silver than chlorhexidine phosphate required to kill Candida albicans", "setting": "[2]; ratio silver vs chlorhexidine phosphate", "value": "up to 190 times"},
      {"measurement": "MBC", "setting": "[3]; Pseudomonas aeruginosa, ATCC9027, 24 h", "value": 26, "unit": "µM"},
      {"measurement": "MBC", "setting": "S. aureus ATCC 6538; Staphylococcus aureus, ATCC6538, 24 h", "value": 7, "unit": "µM"},
      {"measurement": "Log count", "setting": "[4]; CHP 37 uM (sample 1)", "value": 4.4},
      {"measurement": "Log reduction", "setting": "[4]; CHP 37 uM (sample 1)", "value": 5.5},
      {"measurement": "Log count", "setting": "[4]; CHP 75 uM (sample 2)", "value": 3.9},
      {"measurement": "Log reduction", "setting": "[4]; CHP 75 uM (sample 2)", "value": 6.1},
      {"measurement": "Log count", "setting": "[4]; CHP 150 uM (sample 3)", "value": 4.1},
      {"measurement": "Log reduction", "setting": "[4]; CHP 150 uM (sample 3)", "value": 5.9},
      {"measurement": "log reduction of biofilms vs FDA requirement", "setting": "[4]; CHP solutions of 37 μM, 75 μM, 150 μM", "value": "> 4"},
      {"measurement": "elimination of microorganism on the silicone surface and in the solution", "setting": "[5]; prototype sprayed at 45 μg/cm^2", "value": "full elimination"},
      {"measurement": "elimination of microorganism on the silicone surface and in the solution", "setting": "[5]; prototype sprayed at 75 μg/cm^2", "value": "full elimination"},
      {"measurement": "Instant dissolution % Released from silicone after 3 h", "setting": "[1]", "value": 100, "unit": "%"},
      {"measurement": "Total released in 24 h", "setting": "[1]", "value": 100, "unit": "%"}
    ]},
    {"smiles": "O=S(=O)([O-])[O-].[Ag+].[Ag+]", "note": "[Silver sulfate, silver sulfate]", "values": [
      {"measurement": "MBC", "setting": "[2]", "value": 5000, "unit": "µM"},
      {"measurement": "MBC", "setting": "[3]; 24 h", "value": 160, "unit": "µM"},
      {"measurement": "MBC", "setting": "S. aureus ATCC 6538; 24 h", "value": 310, "unit": "µM"},
      {"measurement": "log reduction from inoculum size", "setting": "Staphylococcus aureus", "value": "< 4", "unit": "log"}
    ]}
  ]
}
